“Also recorded” adds a separate entry of the source.
Assays:
Format in all cases: physicochemical
[1] = Physical stability on milling / micronization; conditions: for physical stability when milled: milled at ambient and at sub-ambient temperatures
[2] = Physical stability on storage at controlled relative humidity; conditions: stored 6 days
Procedure: 3-[5-(2-fluorophenyl)-[1,2,4]oxadiazol-3-yl]-benzoic acid (UNMEASURED QUANTITY; FORM B) was stressed in 75% relative humidity at 40° C. for six days.

[3] = Dynamic vapor sorption (DVS) hygroscopicity; conditions: for hygroscopicity: DVS isotherm
Procedure: Form A of 3-[5-(2-fluorophenyl)-[1,2,4]oxadiazol-3-yl]-benzoic acid was evaluated for hygroscopicity. Dynamic vapor sorption (DVS) analysis of moisture uptake and moisture release as a function of relative humidity (RH) were obtained upon cycling between 5% and 95% RH. […] Accordingly, in certain embodiments, Form A is non-hygroscopic.
Moisture sorption/desorption data were collected on a VTI SGA-100 Vapor Sorption Analyzer. Sorption and desorption data were collected over a range of 5% to 95% relative humidity (RH) at 10% RH intervals under a nitrogen purge. Samples were not dried prior to analysis. Equilibrium criteria used for analysis were less than 0.0100% weight change in 5 minutes, with a maximum equilibration time of 3 hours if the weight criterion was not met. Data were not corrected for the initial moisture content of the samples. NaCl and PVP were used as calibration standards.

[4] = Physical stability on slurrying in solvents
[5] = Physical stability under compression

| Structure (SMILES) | physical and chemical stability upon micronization ([1]; micronization (particle size reduction)) | physical stability when milled [1] | physical stability on storage ([2]; 50% RH at 60° C.) | physical stability on storage ([2]; 53% RH at 40° C.) | physical stability on storage ([2]; 75% RH at 40° C.) | physical stability on storage ([2]; 79% RH at 60° C.) | hygroscopicity [3] | maximum moisture uptake (DVS) ([3]; cycling between 5% and 95% RH) | physical stability when slurried ([4]; in 1-BuOH for 4 days at ambient temperature) | physical stability when slurried ([4]; in chloroform for 2 days at 50° C.) | physical stability when slurried ([4]; in dichloromethane for 2 days at 50° C.) | physical stability when slurried ([4]; 1 day at ambient temperature in a 1:1 mixture of THF and heptane) | physical stability when slurried ([4]; in a 1:1 mixture of dioxane and water) | physical stability when slurried ([4]; in methyl isobutyl ketone) | physical stability under compression ([5]; compression alone) | physical stability under compression ([5]; compression in the presence of a 1:1 mixture of t-BuOH and water) |
| --- | --- | --- | --- | --- | --- | --- | --- | --- | --- | --- | --- | --- | --- | --- | --- | --- |
| O=C(O)c1cccc(-c2noc(-c3ccccc3F)n2)c1 [Form A, 3-[5-(2-fluorophenyl)-[1,2,4]oxadiazol-3-yl]-benzoic acid] | physically and chemically stable | physically stable | physically stable | physically stable | physically stable | physically stable | substantially non-hygroscopic | about 0.06 % of the total mass of the sample | physically stable | physically stable | physically stable | – | – | – | – | – |
| O=C(O)c1cccc(-c2noc(-c3ccccc3F)n2)c1 [Form B, 3-[5-(2-fluorophenyl)-[1,2,4]oxadiazol-3-yl]-benzoic acid] | – | conversion from Form B to Form A | physically stable | physically stable | physically stable; also recorded: characterized by XRPD as Form B | partial conversion to Form A | substantially non-hygroscopic | – | – | – | – | physically stable | conversion of Form B to Form A | conversion of Form B to Form A | physically stable | physically stable |

— patent US8748625B2, “Crystalline forms of 3-[5-(2-fluorophenyl)-[1,2,4]oxadiazol-3-yl]-benzoic acid” (PTC Therapeutics, Inc., priority 2006, dated 2014)
